SMILES strings stand for the structures. pEC50: −log10 of the molar value. Entries after “also recorded” stand apart in the source; their conditions may differ.

Format in all cases: cell-based
Series [1] relates to FlpIn293TR-hSLC5A8-3×FLAG (SMCT1)-stable cell line. The series can be described thus: Toxicity test (XTT) in SMCT1-stable cell line. The following applies: SMCT1 cells compared to Mock cells. As to the method: (§1) A toxicity test for stable cells was carried out using an FlpIn293TR-stable cell line. The cells were seeded in a poly-D-lysine-coated 96-well plate at 6.5×10^3 cells/well (Mock) and 8×10^3 cells/well (hSLC5A8 and hSLC5A12 cells), while in antibiotic-free DMEM+dialyzed FBS medium. After 24 hours, they were treated with L- or D-serine at different concentrations and 1 mg/L of doxycycline hyclate was added to induce recombination gene expression. For the ASCT2 knockdown experiment, the seeded cells were transfected after 12 hours with ASCT2 siRNA at 2 pmol/well, using Lipofectamine 3000. The effect of ibuprofen was analyzed by simultaneous addition with D-serine treatment. The cells were cultured for 2 days to 80% confluence. The proliferated cell count was determined by XTT measurement in the same manner as described above.

Series [2] concerns HEK293 cells transiently transfected with pCMV14-hSLC5A12-3×FLAG (SMCT2). The series can be described thus: D-serine toxicity test in transient expression system, SMCT2. The following applies: SMCT2-expressing HEK293 cells; 2 days; XTT. As to the method: (§2) 2-4. Cell survival measurement A D-serine toxicity test was carried out using HEK293 in a transient expression system. The cells were seeded in a 96-well plate at 10,000 cells/well, and transfected with […] DNA (pCMV14 as Mock, pCMV14-hSLC5A8-3×FLAG as SMCT1 and pCMV14-hSLC5A12-3×FLAG as SMCT2). At 24 hours after transfection they were treated with D-serine and further incubated for 2 days. The proliferated cell count was determined by XTT measurement. The XTT solution comprised 1 mg/ml of XTT (2,3-Bis-(2-Methoxy-4-nitro-5-sulfophenyl)-2H-tetrazolium-5-carboxanilide, disodium salt: Biotium, CA, USA) mixed with 7.5 μg/ml of Phenazine methosulfate (Nacalai Tesque, Inc.), and was added to the cultured cells. The incubation reaction was carried out for 4 hours at 37° C., 5% CO2. The absorbance at 450 nm was then measured with a microplate reader.
(Tetrazolium dyes change colour on reduction, which living cells bring about.)

In series [3] the test system is HEK293 cells transiently transfected with pCMV14-hSLC5A8-3×FLAG (SMCT1). The series is described as follows: D-serine toxicity test in transient expression system, SMCT1. Conditions: SMCT1-expressing HEK293 cells; 2 days; XTT. As to the method:
as §2

For series [4], the system named is Flp-In TREx293 cells. The series is described as follows: Cell proliferation by XTT assay in Flp-In TREx293 cells treated with L- or D-serine. As to the method: as §2, §1
In series [5] the test system is FlpIn293TR-hSLC5A12-3×FLAG (SMCT2)-stable cell line. The series can be described thus: Toxicity test (XTT) in SMCT2-stable cell line. The following applies: FlpIn293TR-Mock or SMCT2-stable cell line; SMCT2 cells compared to Mock cells. As to the method:
as §1

Series [6] has as its system HEK293 cells transiently transfected with a cDNA clone of a transporter candidate. The series is described as follows: Cytotoxicity test (XTT) for screening of D-serine transporter candidates. As to the method:
as §2
A total of 19 D-serine transporter candidates were selected from the proteome results. A cytotoxicity test for screening of D-serine transporter was developed based on the idea that intracellular D-serine accumulated via D-serine transporter function induces cytotoxicity. HEK293 cells were transiently transfected with a cDNA clone and the cells were treated with 15 mM or 25 mM D-serine to observe the initial stage and stationary stage of the toxicity effect. […]

Series [7] concerns Flp-In TREx 293 cell line. The series is described as follows: D-[3H]serine uptake in Flp-In TREx 293 cell line in the presence of inhibitors. Conditions: 10 minutes. As to the method:
(§3) The cell lines HEK293 and Flp-In TREx 293 were cultured at 37° C. in a 5% CO2 environment, using Dulbecco's Modified Eagle Medium (DMEM) containing 10% fetal bovine serum (FBS), 100 units/ml Penicillin G and 100 μg/ml streptomycin (P/S). The cells were seeded in a Poly-D-lysine coated 24-well plate at 6×10^4 cells/well. After culturing for 3 days in DMEM Medium containing 10% FBS and P/S, the cell were used for transport activity measurement. Before transport activity measurement, the cells were washed with transport activity measurement buffer (PBS+1 g/L D-glucose) prewarmed to 37° C. and incubated for 10 minutes at 37° C. in 500 μL of buffer. The transport activity measurement was initiated by addition of D-[^3H]serine-containing transport activity buffer at the indicated concentration. The reaction product produced after addition was incubated at 37° C. for the indicated time. The reaction was suspended by removing the D-[^3H]serine-containing transport activity buffer, and the product was washed 3 times with thoroughly cooled transport activity buffer. The cells were dissolved with 500 μL of 0.1 N NaOH and incubated for at least one hour. Protein concentration of the cell lysate was measured by BCA protein assay. The lysate was mixed with 1 mL of Emulsifier Safe (PerkinElmer, MA, USA) and the radioactivity of the lysate was measured with a β-scintillation counter (LSC-8000, Hitachi). In transport activity measurement for Na^+, HBSS (+Na^+: 125 mM NaCl, −Na^+: choline chloride, 4.8 mM KCl, 1.2 mM MgSO4, 1.2 mM KH2PO4, 1.3 mM CaCl2), 5.6 mM D-glucose and 25 mM HEPES was used instead of PBS. For the inhibition experiment, a non-radioactive labeled compound was included as the uptake substrate as shown in the drawing.

In series [8] the target is T1, ASCT2 (Homo sapiens, UniProt Q15758).
T1 construct: expressed in transfected cells; host or cells: HEK293 cells
T1 sequence (Q15758 1-541): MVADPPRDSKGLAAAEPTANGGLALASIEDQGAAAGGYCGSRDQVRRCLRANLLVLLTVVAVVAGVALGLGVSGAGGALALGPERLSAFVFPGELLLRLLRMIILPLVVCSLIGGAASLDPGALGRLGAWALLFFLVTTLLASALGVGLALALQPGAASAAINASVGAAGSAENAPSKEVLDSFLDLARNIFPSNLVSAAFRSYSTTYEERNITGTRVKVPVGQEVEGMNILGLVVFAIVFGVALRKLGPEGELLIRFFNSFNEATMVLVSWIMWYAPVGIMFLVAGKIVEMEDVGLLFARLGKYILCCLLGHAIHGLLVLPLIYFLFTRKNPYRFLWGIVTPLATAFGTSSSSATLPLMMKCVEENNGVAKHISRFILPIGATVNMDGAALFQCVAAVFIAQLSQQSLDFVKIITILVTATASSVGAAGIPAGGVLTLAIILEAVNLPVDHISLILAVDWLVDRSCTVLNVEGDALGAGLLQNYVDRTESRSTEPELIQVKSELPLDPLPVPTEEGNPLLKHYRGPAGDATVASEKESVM
The series is described as follows: [3H]D-serine transport in HEK293 cells transfected with ASCT2.
Protocol: The cell lines HEK293 and Flp-In TREx 293 were cultured at 37° C. in a 5% CO2 environment, using Dulbecco's Modified Eagle Medium (DMEM) containing 10% fetal bovine serum (FBS), 100 units/ml Penicillin G and 100 μg/ml streptomycin (P/S). The cells were seeded in a Poly-D-lysine coated 24-well plate at 6×10^4 cells/well. After culturing for 3 days in DMEM Medium containing 10% FBS and P/S, the cell were used for transport activity measurement. Before transport activity measurement, the cells were washed with transport activity measurement buffer (PBS+1 g/L D-glucose) prewarmed to 37° C. and incubated for 10 minutes at 37° C. in 500 μL of buffer. The transport activity measurement was initiated by addition of D-[^3H]serine-containing transport activity buffer at the indicated concentration. The reaction product produced after addition was incubated at 37° C. for the indicated time. The reaction was suspended by removing the D-[^3H]serine-containing transport activity buffer, and the product was washed 3 times with thoroughly cooled transport activity buffer. […] Protein concentration of the cell lysate was measured by BCA protein assay. The lysate was mixed with 1 mL of Emulsifier Safe (PerkinElmer, MA, USA) and the radioactivity of the lysate was measured with a β-scintillation counter (LSC-8000, Hitachi). […]

The subject of series [9] is HEK293 cells. The series can be described thus: [3H]D-serine transport in HEK293 cells. The following applies: endogenous ASCT2. As to the method:
as §3

In series [10] the test system is ASCT2-knockout HAP1 cells. The series can be described thus: D-serine transport in ASCT2-knockout HAP1 cells. An excerpt: In order to establish positive candidates for D-serine transporter it was attempted to elucidate the transport function in a cell model. ASCT2 is expressed in several cell lines, constituting a strong background of D-serine accumulation and interfering with identification of novel D-serine transporters. HAP1 cells (Horizon Discovery), which are an essentially haploid cell line, can be advantageously used as a cell model for this purpose. Genetic modification is facilitated since almost all of the chromosomes are single copies, while their transcriptome analysis methods have been established and several gene knockout cell lines can be used. ASCT2-knockout HAP1 cells were therefore obtained and used as a model for D-serine screening.
The ASCT2-knockout HAP1 cells had weaker D-serine uptake compared to wild type cells (FIG. 17(A)). However, D-serine transport background was still observed in the ASCT2-knockout HAP1 cells. Proteome analysis of the HAP1 cells (Table 2) was used to detect expression of both SNAT1 and SNAT2. SNAT1 and SNAT2 belong to the “system A family” of sodium-dependent small amino acid transporters. We considered that SNAT may contribute to D-serine transport in HAP1 cells. In order to verify this hypothesis, the inhibiting effect of the system A inhibitor MeAIB on D-serine transport was examined.

As to `N[C@H](CO)C(=O)O` [D-serine], the “cell proliferation effect by D-serine treatment” value in [1] was “lowered proliferation more than in the Mock cells”. In addition, the “cytotoxicity compared to the Mock cells” value in series [2] and in [3] was “higher cytotoxicity” in each case. In addition, the “D-serine toxicity with respect to cell proliferation” value in series [4] (ASCT2 knockdown cells (ASCT2-siRNA) compared with control cells, 2 days, XTT) is “alleviated”. For the same compound, the pEC50 in series [4] (Flp-In-T-REx-293, 48 h, 2 days treatment, XTT assay, read-out: EC50 for cell proliferation reduction) is 1.73. Also, the “cell proliferation effect by serine treatment” value in series [5] is recorded as “decrease in cell proliferation; also recorded: lowered proliferation more than in the Mock cells”. In addition, the “D-serine toxicity effect compared with Mock cells” value in series [6] (15 mM D-serine, cells transfected with SMCT2, CAT1, TAT1 and SNAT2, 2 days) is recorded as “increased toxicity”; in series [6] (25 mM D-serine, cells transfected with GLUT5, SMCT1, SMCT2, CAT1, THTR2 and SNAT2, 2 days), “significant toxicity”.
`N[C@@H](CO)C(=O)O` [L-serine]: the “Uptake of D-[3H]serine” value in series [7] was “inhibited”. The “[3H]D-serine transport” value in series [8] was “notably inhibited”; in series [9] it was “inhibited”. Moreover, the cell proliferation entry in [4] (Flp-In TREx 293 control cells, 2 days, XTT) is “no effect”. In addition, in series [5], the “cell proliferation effect by serine treatment” value was “did not affect cell proliferation”.
With `CNC(C)(C)C(=O)O` [MeAIB, α-Methylaminoisobutyric acid], the “Uptake of D-[3H]serine” value in series [7] is given as “not inhibited”. The D-serine transport entry in [10] is “notably reduced”. Moreover, the “[3H]D-serine transport” value in [9] was “not inhibited”.

Source of the values: patent US20230220387A1, “D-SERINE TRANSPORT MODIFIER AND SCREENING METHOD THEREOF, AND SCREENING METHOD OF D-SERINE TRANSPORTER PROTEIN” (Kagami Inc., priority 2019, published 2023).
